Experimental data taken from patent publication US20170128468A1, “PHOSPHATIDYLGLYCEROL AS AN ANTI-INFLAMMATORY” (Agusta University Research Institute, Inc., priority 2015, published 2017).

Legend:
TPA-induced ear edema = test: Contact irritant (TPA) ear edema mouse in vivo model
Method: Experiments were performed as described in (27). Briefly, the ears of three to five male ICR CD-1 outbred mice [25-30 g; 5-6 weeks of age from Harlan Laboratories (Indianapolis, Ind.)] were treated with acetone or TPA (0.03% in acetone), and at 1 h and 4 h after TPA, the appropriate vehicle or the treatment in vehicle was applied to each ear. Ear thickness was measured using a caliper both before and at approximately 18-20 h after TPA treatment prior to sacrifice. After sacrifice, a circular ear punch biopsy (4 mm^2) was taken, weighed, and fixed in formalin. Histological evaluation included H&E staining and immunohistochemical staining for CD45 to quantify the number of infiltrating immune cells (see below).
(§1) Sections (10 μm) were cut from formalin-fixed paraffin-embedded ear biopsies and deparaffinized and rehydrated as described in (28). […] Multiple random sections (4 to 8 per mouse separately from the left and right ear) were counted by two independent observers in a blinded fashion, counts averaged to determine a value for each mouse ear and values statistically analyzed as described below.
Experiments were performed as described in Clark S P; Bollag W B; Westlund K N; Ma F; Falls G; Xie D; Johnson M; Isales C M; Bhattacharyya M H: Pine oil effects on chemical and thermal injury in mice and cultured mouse dorsal root ganglion neurons. […] Ear thickness was measured using a caliper both before and at approximately 18-20 h after TPA treatment prior to sacrifice. […] Histological evaluation included H&E staining and immunohistochemical staining for CD45 to quantify the number of infiltrating immune cells (see below).
as §1, with “(Voss K E et al., Arch. Dermatol. Res. 303 591-600 (2011)).” for “(28).”, “below. […]” for “below.”

[1] = system: S100A9-induced inflammatory mediator expression in RAW 264.7 macrophage cell line; test: qRT-PCR of inflammatory mediator mRNA in RAW 264.7 cells treated with recombinant S100A9; assay type: cell-based, mouse; settings: 2 h, FIGS. 6A-6D
Method: (§2) Primary cultures of mouse epidermal keratinocytes were prepared from ICR strain CD-1 outbred neonatal mice 1-3 days of age as described in detail in (Bollag W B, et al., J Invest Derm 100 240-246 (1993); Griner R, et al., J Biol Chem, 274 4663-4670 (1999)). All procedures were approved by the Institutional Animal Care and Use Committee. RAW264.7 cells, a mouse macrophage-derived cell line, were kindly provided by Drs. Qing Zhong and Carlos Isales (Augusta University) and were cultured in DMEM containing 10% fetal bovine serum and 1% penicillin and streptomycin.
(§3) Keratinocytes were treated with or without TPA or a synthetic triacylated lipoprotein (Pam3CSK4), a TLR1/TLR2 agonist, or recombinant S100A9 (R&D Systems) or HSPB4 (MyBiosoruce) as indicated, for 2 hours in the presence and absence of different concentrations of soy PG or dioleoylphosphatidylglycerol (DOPG). Cells were harvested and RNA isolated using PerfectPure RNA tissue kits (5 PRIME, Inc, Gaithersburg, Md., USA) as per the manufacturer's protocol. Following verification of RNA integrity using a Nanodrop instrument (NanoDrop Technologies, Wilmington, Del.), RNA was reverse-transcribed to cDNA with iScript cDNA synthesis kits (Bio-Rad Laboratories, Hercules, Calif., USA) and analyzed by real-time PCR using Taqman primer/probe sets from Applied Biosystems (Life Technologies, Grand Island, N.Y.). […]

[2] = system: TNFα protein secretion by RAW264.7 cells; test: TNFα protein secretion by ELISA in RAW264.7 culture supernatants; assay type: cell-based, mouse; settings: 2 h; for TNFα protein secretion: DAMP alone (S100A9 2 μg/mL; HSPB4 0.1 or 1 μg/mL), FIGS. 8A-8B
Method: Cells were treated with recombinant S100A9 or recombinant HSPB4 as indicated and media collected. TNFα levels were determined in the supernatant using an ELISA kit (BD Biosciences) according to the manufacturer's instructions.
Mouse TNFα ELISA kits from BD Biosciences (San Jose, Calif.) were used. RAW264.7 cells were treated with or without recombinant S100A9 or HSPB4 in the presence and absence of DOPG for 2 hours. Cell culture supernatants were collected and stored at −80° C. and subjected to a single freeze-thaw cycle. The ELISA assay was performed according to the manufacturer's instructions with the optical density detected in each sample within 30 minutes, at a wavelength of 450 nm and corrected at 570 nm.

[3] = system: Pam3CSK4-induced inflammatory mediator expression in macrophage cell line RAW 264.7; test: qRT-PCR of inflammatory mediator mRNA in RAW 264.7 macrophage cell line treated with Pam3CSK4; assay type: cell-based, mouse; settings: 2 h
Method: as §2
(§4) Keratinocytes were treated with or without TPA or a synthetic triacylated lipoprotein (Pam3CSK4), a TLR1/TLR2 agonist, or recombinant S100A9 (R&D Systems) or HSPB4 (MyBiosoruce) as indicated, for 2 hours in the presence and absence of different concentrations of soy PG or dioleoylphosphatidylglycerol (DOPG). Cells were harvested and RNA isolated using PerfectPure RNA tissue kits (5 PRIME, Inc, Gaithersburg, Md., USA) as per the manufacturer's protocol. Following verification of RNA integrity using a Nanodrop instrument (NanoDrop Technologies, Wilmington, Del.), RNA was reverse-transcribed to cDNA with iScript cDNA synthesis kits (Bio-Rad Laboratories, Hercules, Calif., USA) and analyzed by real-time PCR using Taqman primer/probe sets from Applied Biosystems (Life Technologies, Grand Island, N.Y.). Reactions were performed using Fast Reagent PCR Master Mix (Applied Biosystems) and a StepOnePlus Real-Time PCR System (Applied Biosystems) as instructed by the manufacturer. Expression of genes of interest was determined using the delta-delta Ct method normalized to the expression of GAPDH as the endogenous housekeeping gene and expressed relative to the appropriate control group.

[4] = system: NF-κB phosphorylation/activation in RAW264.7 cells; test: Western analysis of NF-κB phosphorylation/activation in RAW264.7 cells stimulated with Pam3CSK4; assay type: cell-based, mouse; settings: 10 minutes, FIG. 9
Method: Membranes containing transferred proteins were blocked with 5% non-fat dry milk for at least 30 minutes before incubating with the appropriate primary antibodies, overnight, followed by washing and incubating with secondary antibodies for 1 h at room temperature. Immunoreactivity was visualized using infrared imaging on an Odyssey imaging system (LI-COR Biosciences, Lincoln, Nebr.).

[5] = system: HSPB4-induced inflammatory mediator expression in RAW cell line; test: qRT-PCR of inflammatory mediator mRNA in RAW 264.7 cells treated with recombinant HSPB4; assay type: cell-based, mouse; settings: 2 h, FIGS. 7A-7D
Method: as §2, §3

[6] = system: Pam3CSK4-induced inflammatory mediator expression in keratinocytes; test: qRT-PCR of inflammatory mediator mRNA in keratinocytes treated with Pam3CSK4 (TLR1/2 agonist); assay type: cell-based, mouse
Method: as §2, §3

[7] = system: S100A9-induced inflammatory mediator expression in keratinocytes; test: qRT-PCR of inflammatory mediator mRNA in keratinocytes treated with recombinant S100A9 or LPS; assay type: cell-based, mouse
Method: as §2, §4

[8] = co-treatment with DOPG 100 μg/mL
[9] = recombinant S100A9 alone, keratinocytes, data not shown

## C=C1/C(=C\C=C2/CCC[C@]3(C)[C@@H]([C@H](C)CCCC(C)(C)O)CC[C@@H]23)C[C@@H](O)C[C@@H]1O [1,25-dihydroxyvitamin D3]
TPA-induced ear edema; agent alone in 95% ethanol/5% water, applied 1 and 4 h after 0.03% TPA, FIGS. 10A-10C
  effect on ear edema: neither 1,25-dihydroxyvitamin D3 nor soy PG alone had a significant effect

## CCCCCCCC/C=C\CCCCCCCC(=O)OC[C@H](COP(=O)(O)OCC(O)CO)OC(=O)CCCCCCC/C=C\CCCCCCCC (some centres unmarked) [DOPG, dioleoylphosphatidylglycerol]
[1]; 100 μg/mL DOPG with 2 μg/mL S100A9
  S100A9-induced increase in inflammatory mediator expression: inhibit
[2]; 100 μg/mL DOPG with 2 μg/mL S100A9, FIG. 8A
  S100A9-induced increase in TNFα protein secretion: inhibited
[2]; 100 μg/mL DOPG with 0.1 or 1 μg/mL HSPB4, FIG. 8B
  HSPB4-induced increase in TNFα protein secretion: inhibited
[3]; DOPG 50 μg/mL
  Pam3CSK4-induced IL1α expression: inhibited
  Pam3CSK4-induced IL1β expression: inhibited
[3]; DOPG 50 or 100 μg/mL
  Pam3CSK4 induction of TNFα: no effect
[3]; [8]
  Pam3CSK4-induced IL1α mRNA level: inhibition
  Pam3CSK4-induced IL1β mRNA level: inhibition
  Pam3CSK4-induced IL6 mRNA level: inhibition
[4]; co-treatment with 100 μg/mL DOPG, 2.5 μg/mL Pam3CSK4
  Pam3CSK4-increased phosphorylation/activation of NF-κB: inhibited
[5]; 100 μg/mL DOPG with 0.1 or 1 μg/mL HSPB4
  HSPB4 induction of inflammatory mediator expression: inhibited
[6]; DOPG at either 50 or 100 μg/mL, Pam3CSK4 1 or 2.5 μg/mL, 2-hour incubation, FIGS. 1A-1D
  Pam3CSK4-induced increase in the expression of all cytokines tested (IL1α, IL1β, IL6, TNFα mRNA): significantly inhibited

## CCCCCCCCCCCCCC(=O)O[C@@H]1[C@@H](C)[C@@]2(O)[C@@H](C=C(CO)C[C@]3(O)C(=O)C(C)=C[C@@H]23)[C@@H]2C(C)(C)[C@]12OC(C)=O [TPA, 12-O-tetra-decanoylphorbol 13-acetate]
TPA-induced ear edema; TPA alone, no subsequent treatment with vehicle, percent change from time 0
  increase in ear thickness: 147±16%
TPA-induced ear edema; TPA alone, no subsequent treatment with vehicle, punch biopsy versus no-TPA mice
  increase in ear weight: 158±6%

## Pam3CSK4 [reference compound]
[3]; Pam3CSK4 1 or 2.5 μg/mL alone, FIGS. 3A-3D
  mRNA levels of IL1α, IL1β, IL6 and TNFα upon stimulation: up-regulated
[4]; 2.5 μg/mL Pam3CSK4 alone
  phosphorylation/activation of NF-κB (pNFκB/NFκB ratio): increased
[6]; agonist alone, in vitro
  inflammatory mediator expression in keratinocytes treated with TLR2 agonist: increased

## phosphatidylglycerol [PG]
[7]; 100 μg/mL DOPG with 3 μg/mL recombinant S100A9, 2 h, FIG. 5A
  S100A9-induced expression of IL-1β: inhibited
[7]; 100 μg/mL DOPG with 3 μg/mL recombinant S100A9, 2 h, FIG. 5B
  S100A9-induced expression of IL-6: inhibited
[7]; 100 μg/mL DOPG with 3 μg/mL recombinant S100A9, 2 h, FIG. 5C
  S100A9-induced expression of TNFα: inhibited

B1: S100A9: recombinant anti-microbial protein, a DAMP that activates TLR2 (as well as TLR4) (protein, UniProt P06702 1-114, looked up)
Protein S100-A9: MTCKMSQLERNIETIINTFHQYSVKLGHPDTLNQGEFKELVRKDLQNFLKKENKNEKVIEHIMEDLDTNADKQLSFEEFIMLMARLTWASHEKMHEGDEGPGHHHKPGLGEGTP
[1]; 2 μg/mL recombinant S100A9 alone
  inflammatory mediator expression (IL1α, IL1β, IL6, TNFα mRNA): increases
[2]
  TNFα protein secretion: induce
[7]; S100A9 alone, keratinocytes
  IL-1α expression: only minimally stimulated
[7]; recombinant S100A9 alone, 1 to 3 μg/mL, 2 h, FIG. 4B
  expression of IL1β: stimulated
[7]; recombinant S100A9 alone, 1 to 3 μg/mL, 2 h, FIG. 4C
  expression of IL6: stimulated
[7]; recombinant S100A9 alone, 1 to 3 μg/mL, 2 h, FIG. 4D
  expression of TNFα: stimulated
[7]; [9]
  expression of TLR1: induced
  expression of TLR2: induced

B2: denatured (heated) S100A9: heat-denatured recombinant S100A9 protein (protein, UniProt P06702 1-114, looked up)
Protein S100-A9: MTCKMSQLERNIETIINTFHQYSVKLGHPDTLNQGEFKELVRKDLQNFLKKENKNEKVIEHIMEDLDTNADKQLSFEEFIMLMARLTWASHEKMHEGDEGPGHHHKPGLGEGTP
modifications: heat-denatured
notes: heat-denatured recombinant S100A9 protein
[7]; denatured (heated) protein, keratinocytes
  stimulating inflammatory mediator mRNA levels, relative to native S100A9: significantly less effective

B3: HSPB4: recombinant small heat shock protein, a DAMP shown to mediate sterile corneal inflammation (protein, UniProt P02489 1-173, looked up)
Alpha-crystallin A chain: MDVTIQHPWFKRTLGPFYPSRLFDQFFGEGLFEYDLLPFLSSTISPYYRQSLFRTVLDSGISEVRSDRDKFVIFLDVKHFSPEDLTVKVQDDFVEIHGKHNERQDDHGYISREFHRRYRLPSNVDQSALSCSLSADGMLTFCGPKIQTGLDATHAERAIPVSREEKPTSAPSS
[2]
  TNFα protein secretion: induce
[5]; 0.1 or 1 μg/mL recombinant HSPB4 alone
  inflammatory mediator expression (IL1α, IL1β, IL6, TNFα mRNA): stimulate
